Reference: a melting point compilation (Tetko et al.; mined from patent text by program, amines drawn as free bases though some values may be those of a salt)

SMILES | melting point
O=C(OCC(Cn1cnc2c(Cl)nc3ccccc3c21)OC(=O)c1ccccc1)c1ccccc1 (stereo not given) | 162 to 165 °C
CN(C)CC1CCCCN1CCNC(=O)N1c2ccccc2NC(=O)c2ccccc21 (stereo not given) | 152 to 154 °C
O=C(Nc1cccc(S(=O)(=O)Nc2ccccc2)c1)c1cnn2c(C(F)F)cc(-c3ccc(C(F)(F)F)cc3)nc12 | 228 °C
O=C1CCC(c2c[nH]c3cc(F)ccc23)CC1 | 102 to 105 °C
C#CCn1c(-c2cc(Cl)nc(Cl)c2)nn(C(C)(C)C)c1=O | 107 to 109 °C
CCc1cc(=O)c(I)c(CC)[nH]1 | 225 to 227 °C
C[C@H](O)CCC[C@H](O)CCCCCc1cc(O)cc(O)c1C(=O)O | 116 to 118 °C
COc1ccc(COC(=O)NC(CO)Cc2ccc(O)cc2)cc1OC (stereo not given) | 152 to 155 °C
COc1ccc(C(=O)c2ccc(OCc3nc(-c4ccccc4)oc3C)cc2)c(OC(C)(C)C(=O)O)c1 | 175 to 177 °C
O=c1oc(-c2snnc2C2CC2)nc2ccccc12 | 164 to 165 °C
C#CCCCCn1ncc2c(N)c(C(=O)OCC=C)c(C)nc21 | 69 to 70 °C
FC(F)(F)Oc1ccc(-n2cnc(-c3ccc(/C=N/NC(=S)Nc4ccccc4C4CCCC4)cc3)n2)cc1 | 213 to 216 °C
C/C(NCc1ccccc1)=C(\C#N)C(N)=S | 157 to 159 °C
COc1ccc2oc(C(O)Cc3ccccc3)cc2c1 (stereo not given) | 69 to 70 °C
COc1ccc(-n2cnc3c(OC)nc4ccccc4c32)cc1 | 180 to 182 °C
Cc1c(C)c2c(c(C)c1NC(=O)CC(C)(C)C)C(c1ccc(Br)cc1)C(C)(C)O2 (stereo not given) | 201 to 202 °C
NC(=NO)C1CCc2ccccc2CC1 | 219 °C
Cn1nc(C(F)(F)F)c(CS(=O)(=O)C2=NOC(C)(CCl)C2)c1Cl (stereo not given) | 114 to 116 °C
Nc1cc(C(=O)O)cc(SCc2ccccn2)c1-c1ccccc1 | 210 to 211 °C
CCOC(=O)C1=C(C)NC(C=NOC)=C(C(=O)OCC)C1c1ccccc1Cl (stereo not given) | 110 to 112 °C
COc1cccc(C(=O)Nc2ccc(Cn3cnc(O)c3C(N)=O)cc2)c1 | 257 to 259 °C
Cc1ccc2[nH]c3c(c2c1)CC(C)n1c-3nc2c(c1=O)CCCC2 (stereo not given) | 220 °C
O=Cc1cc2n(c1)Cc1ccccc1-n1ccnc1-2 | 203 to 205 °C
Cc1nc(N2CCN(Cc3ccc(F)cc3)C2=O)sc1C(=O)NCc1ccncn1 | 175 to 176 °C
COc1cccc(CNc2ncnc3c2sc2nc(N4CCCC4)c4c(c23)CC(C)(C)OC4)c1OC | 166 to 168 °C

SMILES | melting point
CCN(c1nc(C)cc(C(=O)c2ncc[nH]2)n1)c1ccc(C(C)C)cc1Br | 75 to 76 °C
CCOc1cc2c(Nc3cc(OC)c(Cl)cc3Cl)c(C#N)cnc2cc1OCC1CCN(C)CC1 | 182 to 186 °C
CC1(C)OC(=O)C(C(=O)Cc2cc(F)c(F)cc2F)C(=O)O1 | 102 to 104 °C
O=c1[nH][nH]c(=O)c2c(O)c3cc([N+](=O)[O-])ccc3nc12 | 264 °C
Cc1ccccc1CSc1c(O)cc(-c2ccccc2)oc1=O | 176 to 178 °C
CC(C)=CCCC(C)=CC=C1SC(=S)N(CC(=O)O)C1=O | 95 to 98 °C
C#Cc1cccc(C(=O)OCc2ccccc2)c1N | 42 to 43 °C
Cn1c(=O)c(C(=O)O)c(-c2ccccc2Cl)c2ccncc21 | > 250 °C
Oc1ccc(C2CC(c3ccccc3)=NN2c2ccccc2)cc1 (stereo not given) | 144 to 145 °C
COC1=CC(=O)C(O)=C(CCCCCCCC2OC2CCCCCCCC2=C(O)C(=O)C=C(OC)C2=O)C1=O (stereo not given) | 134 to 136 °C
NS(=O)(=O)c1ccccc1S(N)(=O)=O | 250 °C
O=C(Nc1nc(-c2cc(Cl)nc(Cl)c2)cs1)NS(=O)(=O)c1ccccc1C(F)(F)F | > 280 °C
N#Cc1cc[nH]c1-c1ccc(Cl)cc1 | 165 to 166 °C
CCCCC(c1cccc(C(F)(F)F)c1)n1ccc2cc(-c3ccccc3-c3nn[nH]n3)ccc21 (stereo not given) | 75 to 80 °C
COc1ccc(-c2[nH]nc3c2C(=O)c2c(NC(=O)NNC(=O)c4ccc(N)cc4)cccc2-3)cc1 | 247 °C
Cc1cc(F)cc2c(=O)c(C(=O)O)cn(CC(F)(F)F)c12 | 198 to 201 °C
CC1(C)[C@H]2[C@H](O)OC(=O)[C@H]21 | 116 °C
Cc1nc(NC(=O)n2ccnc2)sc1-c1ccnc(CC2CC2)n1 | 240 to 243 °C
C/C=C(/C)c1ccc2c(c1)C(=O)N(c1ccc3c(ccn3C)c1)C2 | 144 to 145 °C
O=C(NC(Cc1c[nH]c2ccccc12)C(=O)OCc1cccc(C(F)(F)F)c1)c1ccccc1 (stereo not given) | 118 °C
CCC(C(C)=CC(CNC(=O)c1ccc(N)nc1)=NO)[N+](=O)[O-] (stereo not given) | 190 to 191 °C
COc1cc(C(CCl)(OC)OC)ccc1OS(=O)(=O)c1ccccc1 | 130 °C
COc1cc2[nH]cc(-c3cc4cc(F)cnc4n3S(=O)(=O)c3ccc(C)cc3)c2cc1OC | 218 °C
CC(C)CCC(O)C(CC1CCCCC1)NC(=O)C(Cc1c[nH]cn1)N(C)C(=O)C(Cc1ccccc1)OC(=O)N(C)CCC(=O)N1CCOCC1 (stereo not given) | 80 to 87 °C
Cn1cc(C(=O)c2ccncc2)cc1C(=O)c1ccc(Cl)cc1 | 174 to 175 °C

SMILES | melting point
COCCOc1cc(OCCN2CCCC2)c2c(=O)[nH]c(-c3cc(C)nc(C)c3)nc2c1 | 60.4 to 62.3 °C
CC(C)[C@H](NC(=O)OCc1csc(N2CCOCC2)n1)C(=O)N[C@@H](Cc1ccccc1)C[C@H](O)[C@H](Cc1ccccc1)NC(=O)OCc1cncs1 | 169 to 170 °C
CCc1c(Cl)nc(NC=O)nc1Cl | 116 to 118 °C
Clc1ccc2c(c1)-c1[nH]ncc1CS2 | 205 to 206 °C
CO[C@@H]1CCN2C(=O)N(c3ccc(C#N)c4ccccc34)C(=O)[C@H]12 (relative stereo) | 185 to 186 °C
CCCCCCN=C=O | 68 to 72 °C
O=C(CC(F)=C(F)F)Nc1cccc(C(=O)O)c1 | 252 to 255 °C
CN1C(=O)c2ccc(-c3ccc(Cl)cc3)cc2C1=O | 131 to 132 °C
C=Cc1cc(Cl)c(N)c(Cl)c1 | 63 °C
COC(=O)c1sccc1NC(=O)OC(C)C | 105 to 107 °C
CCOC(=O)c1ncn(Cc2c(F)cccc2F)c1C(=O)OCC | 70 to 72 °C
C=CC(=O)NCCNC(=O)C=C | 150 to 155 °C
COc1c(C(=O)O)nc(Br)c(Cl)c1N | 154 to 156 °C
O=C(NCCCCCCOC(=O)N1CCC(OC(=O)NC2CCCCC2)CC1)Oc1ccc(Oc2ccccc2)cc1 | 138 to 142 °C
Cc1nc(C)c(CBr)nc1C | 41.2 to 44 °C
CCOC(=O)C(=O)c1cn(CCCNC(=O)OC(C)(C)C)c2ccccc12 | 89 to 90 °C
COC(=O)c1csc(C(=O)CBr)c1OC(=O)c1ccccc1 | 115 to 118 °C
OCC1C(O)C(O)C(O)CN1C=CCc1cccc(OCCOc2cccc(CC=CN3CC(O)C(O)C(O)C3CO)c2)c1 (stereo not given) | 210 to 213 °C
CCCCc1ccccc1OCCCOc1cccc2c(=O)cc(C(=O)O)oc12 | 168 °C
CC1(C)CCc2c1ccc1c2CCc2cc(O)ccc2-1 | 152 to 153 °C
CCN1C(=O)C(C)(C)C(=O)N(C)c2cc(CN(CCn3ccc4oc(C)cc4c3=O)Cc3ccc4c(c3)OCO4)ccc21 | 180 to 182 °C
CCOC(=O)C1CC(O)CN1C(=O)c1ccc2c(c1)OCO2 (stereo not given) | 98 °C
CC(=O)N(c1ccc(O)cc1)c1ccc2cc(O)ccc2c1 | 255 °C
N#Cc1ccc(NC(=O)c2ccc(-n3nc(C(F)(F)F)cc3C(F)(F)F)cc2)cc1 | 192 to 193 °C
Cc1cc(=O)n(C)c2ccc(C3=NNC(=O)CC3CO)cc12 (stereo not given) | 222 to 223 °C

SMILES | melting point
N#CC(C(=O)c1ccc([N+](=O)[O-])cc1)=C1CCCCN1 | 182 °C
N=C(NCCCOc1cccc2[nH]c3ccccc3c12)c1cccs1 | 189 to 190 °C
O=S(=O)(c1ccccc1)c1cc2cc(Cl)ccc2[nH]1 | 137 to 138 °C
Nc1ccccc1C(=O)C1CCCCC1 | 74 to 75 °C
CC[C@@H]1CN(c2c(F)c(N)c3c(=O)c(C(=O)O)cn(C4CC4)c3c2F)C[C@H]1N (relative stereo) | 195 to 196 °C
CC(COc1ccc2ccc(N)nc2n1)CN(C)C (stereo not given) | 108 °C
Brc1cccc(Nc2ncnc3cc4c(cc23)OC(CN2CCOCC2)CO4)c1 (stereo not given) | 229 to 230 °C
CC(=O)c1c(C)c(NC=O)c(C)c2c1OCC2c1ccc(C(C)C)cc1 (stereo not given) | 177 to 179 °C
CCC(CC(=O)NC(=O)OC(C)(C)C)Nc1ccccc1 (stereo not given) | 105 to 106 °C
COc1cc(-c2ncc(S(C)=O)cc2Cl)c(F)cc1Cl (stereo not given) | 117 to 118 °C
CN(C)c1nc2ccccc2nc1/C=C/c1nc(Cl)cc(N2CCCC2)n1 | 196 to 197 °C
CC(C)(C)c1nnc(NN=Cc2ccccc2)s1 | 195 to 196 °C
COC(=O)CCCc1cc2nc(Cl)ccc2n1S(=O)(=O)c1cccc2nsnc12 | 112 °C
O=C(Nc1ccc(S(=O)(=O)C[N+](=O)[O-])cc1)c1ccccc1 | 211 to 212 °C
Cc1cccc(C)c1NC(=O)CC1CCN(CCC2CCOc3ccccc32)CC1 (stereo not given) | 136 °C
C=CCn1cc(C(=O)O)c(=O)c2cc(F)c(N3CCN(C)CC3)cc21 | 208 °C
COC(=O)c1sccc1-c1ccccc1 | 63 to 66 °C
N#Cc1nc(N)c2ncn(C3OC(CO)C(O)C3O)c2n1 (stereo not given) | 195 to 197 °C
CS(=O)(=O)c1ccc(C2=C(c3ccccc3)C(=O)C3(CCCC3)O2)cc1 | 184 to 185 °C
COc1ccc(N(CCCC(=O)O)C(=O)C(C)N(C(=O)c2ccc(Cl)cc2Cl)c2ccc(OC)cc2)cc1 (stereo not given) | 159 to 160 °C
CC1(C2CC2)OC(=O)Nc2ccc(-c3cccc(Cl)c3)cc21 (stereo not given) | 158 to 159 °C
CCN1C(=O)C(C)(C)C(=O)N(C)c2cc(CN(CCc3cccnc3)S(=O)(=O)c3ccccc3)ccc21 | 143 to 146 °C
COc1cc(OC)nc(C(=O)NS(=O)(=O)Oc2c(Cl)cccc2Cl)n1 | 136 to 139 °C
N=C(Nc1cccc2ccccc12)Nc1cccc2ccccc12 | 210 to 211 °C
CN(C(=O)CN(C(=O)CNC(=O)Nc1cccc(/C=C/CO)c1)c1ccccc1)c1ccccc1 | 85 °C
